Experimental findings from US20150342985A1, “COMPOSITIONS COMPRISING LITHIUM” (priority 2012, published 2015) are described below.

This data set is described as follows: Lithium isotope levels in post-mortem neocortex (BA7), quadrupole inductively coupled plasma mass spectroscopy. The source says: Lithium (Li) isotope levels have been measured in post-mortem neocortex (BA7) of human subjects having bipolar disorder, without having bipolar disorder receiving lithium treatment at time of death. Neurologically intact individuals and subjects with schizophrenia were included as controls.
Bipolar brains show a 4% shift away from 7-Li within the total lithium content. Similar fractionation is not seen in schizophrenia or neurologically intact controls.

As for `[7Li]` [7-Li], the “shift away from 7-Li within the total lithium content” value (bipolar brains, FIG. 2, deviation from environmental distribution) is listed as 4%. In addition, for the setting “schizophrenia or neurologically intact controls”, the “fractionation (shift away from 7-Li) in brain” value is on record as “not seen”.

Take `[6Li]` [Li-6]: the brain penetration result (relative to Li-7, stated as applicants' discovery) was “better able to penetrate the brain”.
